This note sets out measurements from patent US9738655B2, “Tetrahydroisoquinolines containing substituted azoles as factor XIa inhibitors” (BRISTOL-MYERS SQUIBB COMPANY, priority 2013, dated 2017).

For orientation: Ki means a measure of affinity in units of concentration, obtained from inhibition or displacement.

Structures can show the parent of a compound that is named as a salt. Where two headings read alike, the source gives them in different places. Bounds are passed on as bounds.

The target of experiment [1] is purified human plasma kallikrein (Homo sapiens (Human), UniProt P03952). The experiment is described as follows: Plasma kallikrein enzyme inhibition assay (chromogenic substrate S-2302). Format: biochemical.
Chain of purified human plasma kallikrein (P03952 391-638): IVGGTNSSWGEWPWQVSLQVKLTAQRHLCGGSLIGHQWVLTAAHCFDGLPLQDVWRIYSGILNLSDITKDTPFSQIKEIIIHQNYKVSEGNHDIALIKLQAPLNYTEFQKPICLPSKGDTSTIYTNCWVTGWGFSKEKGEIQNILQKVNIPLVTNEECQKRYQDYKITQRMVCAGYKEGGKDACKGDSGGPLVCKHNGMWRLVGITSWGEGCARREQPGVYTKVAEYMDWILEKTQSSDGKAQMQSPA
Chain of purified human plasma kallikrein (P03952 20-390 partner): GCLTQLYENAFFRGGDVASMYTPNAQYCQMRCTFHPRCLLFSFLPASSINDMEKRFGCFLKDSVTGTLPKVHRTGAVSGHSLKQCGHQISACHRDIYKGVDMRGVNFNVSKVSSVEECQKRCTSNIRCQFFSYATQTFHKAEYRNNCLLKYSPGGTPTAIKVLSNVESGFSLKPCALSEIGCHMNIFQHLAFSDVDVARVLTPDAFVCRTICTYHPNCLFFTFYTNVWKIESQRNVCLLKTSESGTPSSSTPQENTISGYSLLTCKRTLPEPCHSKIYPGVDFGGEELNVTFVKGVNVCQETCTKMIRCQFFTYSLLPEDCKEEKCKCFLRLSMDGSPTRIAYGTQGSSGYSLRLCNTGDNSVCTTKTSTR
The target of experiment [2] is purified human Factor XIa (Homo sapiens (Human), UniProt P03951). As to the kind of experiment: Factor XIa enzyme inhibition assay (chromogenic substrate S-2366). The following applies: read-out: Factor XIa Ki, measured at 25° C.
Chain of purified human Factor XIa (P03951 388-625): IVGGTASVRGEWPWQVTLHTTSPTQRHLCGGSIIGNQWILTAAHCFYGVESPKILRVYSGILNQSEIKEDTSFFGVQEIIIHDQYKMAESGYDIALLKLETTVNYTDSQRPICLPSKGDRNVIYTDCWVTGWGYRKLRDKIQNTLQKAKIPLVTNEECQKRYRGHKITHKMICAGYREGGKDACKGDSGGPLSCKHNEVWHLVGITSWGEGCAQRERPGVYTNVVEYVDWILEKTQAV
Chain of purified human Factor XIa (P03951 19-387 partner): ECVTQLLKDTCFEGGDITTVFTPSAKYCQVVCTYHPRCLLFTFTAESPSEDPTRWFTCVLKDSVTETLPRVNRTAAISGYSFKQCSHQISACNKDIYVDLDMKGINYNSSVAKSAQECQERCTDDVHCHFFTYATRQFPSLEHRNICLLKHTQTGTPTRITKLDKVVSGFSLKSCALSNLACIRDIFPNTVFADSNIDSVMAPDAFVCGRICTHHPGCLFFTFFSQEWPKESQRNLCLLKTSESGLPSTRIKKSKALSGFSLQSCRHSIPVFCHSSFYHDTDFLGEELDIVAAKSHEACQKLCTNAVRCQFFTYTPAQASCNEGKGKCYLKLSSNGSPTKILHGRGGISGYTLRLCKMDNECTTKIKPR
The mark [3] stands for this setting: measured at 25° C. (no asterisk).
The mark [4] stands for this setting: measured at 25° C. (no asterisk), TFA salt.

Turning to `O=C(Nc1ccccc1)C1c2cccc(Br)c2CCN1C(=O)c1cn(-c2cccc(Cl)c2F)nn1` (stereo not drawn) [Example 119, 5-Bromo-2-(1-(3-chloro-2-fluorophenyl)-1H-1,2,3-triazole-4-carbonyl)-N-phenyl-1,2,3,4-tetrahydroisoquinoline-1-carboxamide], the results for the Ki in experiment [1] (measured at 37° C. (*)) and in experiment [2] were 1.1 µM and 4.44 µM, respectively. Consider `CN(C)CCNC(=O)c1ccc(-c2cccc3c2CCN(C(=O)c2cn(-c4cccc(Cl)c4F)nn2)C3C(=O)Nc2ccc(C(=O)O)cc2)cc1` (stereo not drawn) [Example 6, 4-(2-(1-(3-Chloro-2-fluorophenyl)-1H-1,2,3-triazole-4-carbonyl)-5-(4-((2-(dimethylamino)ethyl)carbamoyl)phenyl)-1,2,3,4-tetrahydroisoquinoline-1-carboxamido)benzoic acid], for which the Ki is 0.0024 µM in experiment [1] (setting [3]) and < 0.005 µM in experiment [2]. With `O=C(O)c1ccc(NC(=O)[C@@H]2c3ccccc3CCN2C(=O)c2cn(-c3cccc(Cl)c3F)nn2)cc1` [Example 3, (S)-4-(2-(1-(3-Chloro-2-fluorophenyl)-1H-1,2,3-triazole-4-carbonyl)-1,2,3,4-tetrahydroisoquinoline-1-carboxamido)benzoic acid], the results for the Ki in experiment [1] (setting [3]) and in experiment [2] were 0.0131 µM and 0.00644 µM, respectively. The like results for `CN1CCN(c2cccc3c2CCN(C(=O)c2cn(-c4cccc(Cl)c4F)nn2)[C@@H]3C(=O)Nc2ccc(C(=O)O)cc2)CC1=O` [Example 287, (S)-4-(2-(1-(3-chloro-2-fluorophenyl)-1H-1,2,3-triazole-4-carbonyl)-5-(4-methyl-3-oxopiperizin-1-yl)-1,2,3,4-tetrahydroisoquinoline-1-carboxamido)benzoic acid, TFA salt] were, in that order, 0.00182 µM and < 0.005 µM. As to `COC1CCN(c2cccc3c2CCN(C(=O)c2cn(-c4cccc(Cl)c4F)cn2)[C@H]3C(=O)Nc2ccc(C(=O)O)cc2)CC1` [Example 272, (R)-4-(2-(1-(3-chloro-2-fluorophenyl)-1H-imidazole-4-carbonyl)-5-(4-methoxypiperidin-1-yl)-1,2,3,4-tetrahydroisoquinoline-1-carboxamido)benzoic acid, TFA salt], the results for the Ki in experiment [1] (measured at 37° C. (*)) and in experiment [2] were > 6 µM and 0.976 µM, respectively. For the molecule `CN(C)C(=O)C1CCN(c2cccc3c2CCN(C(=O)C2CC(c4cccc(Cl)c4F)=NO2)C3C(=O)Nc2ccc(C(=O)O)cc2)CC1` (single isomer, unassigned) [Example 279, 4-(2-(3-(3-chloro-2-fluoropheny)-4,5-dihydroisoxazole-5-carbonyl)-5-(4-(dimethylcarbamoyl)piperidin-1-yl)-1,2,3,4-tetrahydroisoquinoline-1-carboxamido)benzoic acid, TFA salt], the Ki in experiment [1] (setting [4]) was 0.0308 µM; in experiment [2], < 0.005 µM. In the case of `COC1CCN(c2cccc3c2CCN(C(=O)C2(C)CC(c4cccc(Cl)c4F)=NO2)C3C(=O)Nc2ccc(C(=O)O)cc2)CC1` (stereo not drawn) [Example 267, 4-(2-(3-(3-chloro-2-fluorophenyl)-5-methyl-4,5-dihydroisoxazole-5-carbonyl)-5-(4-methoxypiperidin-1-yl)-1,2,3,4-tetrahydroisoquinoline-1-carboxamido)benzoic acid, TFA salt], the Ki in experiment [1] (setting [4]) was found to be 0.354 µM; in experiment [2] (TFA salt), 0.103 µM. With `Cn1cc2c(n1)CCN(C(=O)c1cn(-c3cccc(Cl)c3F)nn1)C2C(=O)Nc1ccc(C(=O)O)cc1` (stereo not drawn) [Example 220, 4-(5-(1-(3-Chloro-2-fluorophenyl)-1H-1,2,3-triazole-4-carbonyl)-2-methyl-4,5,6,7-tetrahydro-2H-pyrazolo[4,3-c]pyridine-4-carboxamido)benzoic acid], the Ki stood at 0.179 µM in experiment [1] (setting [3]) and 0.769 µM in experiment [2]. In experiment [1] (measured at 37° C. (*)), `O=C(O)c1ccc(NC(=O)[C@@H]2c3cccc(N4CCC(C5COC5)CC4)c3CCN2C(=O)[C@H]2CC(c3cccc(Cl)c3F)=NO2)cc1` [Example 234, 4-((S)-2-((R)-3-(3-Chloro-2-fluorophenyl)-4,5-dihydroisoxazole-5-carbonyl)-5-(4-(oxetan-3-yl)piperidin-1-yl)-1,2,3,4-tetrahydroisoquinoline-1-carboxamido)benzoic acid, TFA salt] returned a Ki of 0.0269 µM.

The molecule `CN1CCN(c2cccc3c2CCN(C(=O)C2CC(c4cccc(Cl)c4F)=NO2)C3C(=O)Nc2ccc(C(=O)O)cc2)CC1` (stereo not drawn) [Example 202, 4-(2-(3-(3-chloro-2-fluorophenyl)-4,5-dihydroisoxazole-5-carbonyl)-5-(4-methylpiperazin-1-yl)-1,2,3,4-tetrahydroisoquinoline-1-carboxamido)benzoic acid, 2 TFA salt] gave a Ki in experiment [1] (setting [3]) of 0.00111 µM. The same measure, in the same setting: the value for `COCCOc1cccc2c1CCN(C(=O)[C@H]1CC(c3cccc(Cl)c3F)=NO1)[C@@H]2C(=O)Nc1ccc(C(=O)O)cc1` [Example 114, 4-((S)-2-((R)-3-(3-Chloro-2-fluorophenyl)-4,5-dihydroisoxazole-5-carbonyl)-5-(2-methoxyethoxy)-1,2,3,4-tetrahydroisoquinoline-1-carboxamido)benzoic Acid] was 0.0152 µM; that for `COc1cccc2c1CCN(C(=O)[C@H]1CC(c3cccc(Cl)c3F)=NO1)[C@@H]2C(=O)Nc1ccc(C(=O)O)cc1` [Example 293, 4-((S)-2-((R)-3-(3-chloro-2-fluorophenyl)-4,5-dihydroisoxazole-5-carbonyl)-5-methoxy-1,2,3,4-tetrahydroisoquinoline-1-carboxamide)benzoic acid] was 0.00324 µM. On to `CC(C)c1nnc2n1CCN(c1cccc3c1CCN(C(=O)[C@@H]1CC(c4cccc(Cl)c4F)=NO1)[C@@H]3C(=O)Nc1ccc(C(=O)O)cc1)C2` [Example 338, 4-((S)-2-((S)-3-(3-Chloro-2-fluorophenyl)-4,5-dihydroisoxazole-5-carbonyl)-5-(3-isopropyl-5,6-dihydro-[1,2,4]triazolo[4,3-a]pyrazin-7(8H)-yl)-1,2,3,4-tetrahydroisoquinoline-1-carboxamido)benzoic acid, TFA salt], for which the Ki in experiment [1] (measured at 37° C. (*)) was 0.251 µM.

Take `O=C(O)c1ccc(NC(=O)C2c3cccc(N4CCOCC4)c3CCN2C(=O)[C@H]2CC(c3cccc(Cl)c3F)=NO2)cc1` (stereo in doubt) [Example 296, 4-((S)-2-((R)-3-(3-chloro-2-fluorophenyl)-4,5-dihydroisoxazole-5-carbonyl)-5-morpholino-1,2,3,4-tetrahydroisoquinoline-1-carboxamido)benzoic acid, TFA salt]: the Ki in experiment [1] (setting [3]) is 0.186 µM. The molecule `COC1CCN(c2cccc3c2CCN(C(=O)C2CC(c4cccc(Cl)c4F)=NO2)C3C(=O)Nc2ccc(C(=O)O)cc2)CC1` (single isomer, unassigned) [Example 305, 4-(2-(3-(3-chloro-2-fluorophenyl)-4,5-dihydroisoxazole-5-carbonyl)-5-(4-methoxypiperidin-1-yl)-1,2,3,4-tetrahydroisoquinoline-1-carboxamido)benzoic acid, TFA] came in with a Ki in experiment [1] (measured at 25° C. (no asterisk), TFA) of 0.0317 µM. For the molecule `O=C(O)c1ccc(NC(=O)[C@H]2c3cccc(-n4cnnc4)c3CCN2C(=O)[C@H]2CC(c3cccc(Cl)c3F)=NO2)cc1` [Example 248, 4-((R)-2-((R)-3-(3-Chloro-2-fluorophenyl)-4,5-dihydroisoxazole-5-carbonyl)-5-(4H-1,2,4-triazol-4-yl)-1,2,3,4-tetrahydroisoquinoline-1-carboxamido)benzoic acid, TFA salt], the Ki in experiment [1] (measured at 37° C. (*)) turned out to be 0.0832 µM.
